In ChEMBL document CHEMBL1150830, “Polychlorinated acetamides from the cyanobacterium Microcoleus lyngbyaceus” (J Nat Prod, 2001):
Active and inactive are the calls of the source. The calls are words filed in the database; no cut-off is given here.

Tested on: Human immunodeficiency virus 1
Experiment: Antiviral activity against HIV1 infected in human H9 cells assessed as inhibition of virus-induced cytopathic effect by tetrazolium-based method
Format: functional, organism-based

Row | Compound | Activity
1 | CC(=O)NC(CCCC#CCC(Cl)(Cl)Cl)CCCC#CCC(Cl)(Cl)Cl | inactive
2 | CC(=O)NC(CCCC#CCC(Cl)Cl)CCCC#CCC(Cl)(Cl)Cl (configuration not stated) | inactive
